In US10487045B2, “Adamantane derivative and use thereof” (TOHOKU UNIVERSITY, priority 2016, dated 2019):

Assays:
Kir6.1 defective mice = experiment: Tail-suspension and forced swim methods in Kir6.1 defective mice (hetero-type); format: in vivo; conditions: chronic treatment
Description: (§1) OBX mice were originally established as depression model mice although a deterioration of cognitive function was observed. Depression was analyzed by a tail-suspension method (a) and a forced swim method (b). The tail-suspension method is a method of pinching the tail of a mouse and hanging the mouse upside down. If the mouse hung has depression, immobility time is long. Since a normal mouse moves even if it is hung, the immobility time is short. In the forced swim method, a mouse is forced to swim in water in a beaker. A mouse having depression neither swims nor moves (just floating). Thus the immobility time is measured. Immobility time was long in OBX mice both in the tail-suspension method (a) and the forced swim method (b). The immobility time of a TP-014 chronic administration group (2 weeks, in the same administration method as that previously mentioned) was improved.
Immobility time of Kir6.1 defective mice (hetero-type, n=5 per group) was measured by the tail-suspension method (a) and the forced swim method (b) in the same manner as in FIGS. 11a and 11b. The hetero-type mice are the mice in which the expression level of Kir6.1 channel is half (the homo type mice develops arrhythmia after birth and dies) in contrast to the homo type mice (complete defective mice). […] The chronic treatment with TP-014 was not effective. […]

[1] = tested on: olfactory bulbectomized mice (OBX mice); experiment: Cognitive function tests (Y-maze, new object recognition, fear conditioning, LTP) in olfactory bulbectomized mice; format: in vivo; conditions: chronic administration (2 weeks)
Kir6.2 channel = biological target: T1, Kir6.2 channel (Mus musculus, UniProt Q61743); experiment: Calcium imaging method (Fura2) in Kir6.2 channel-overexpressing cells; format: cell-based
T1 construct: expressed in transfected cells; host or cells: Neuro2A (N2A) cells, transient transfection with pcDNA3.1-Kir6.2 (gift of Dr. Toru Ishizuka, Tohoku University)
T1 sequence (Q61743 1-390): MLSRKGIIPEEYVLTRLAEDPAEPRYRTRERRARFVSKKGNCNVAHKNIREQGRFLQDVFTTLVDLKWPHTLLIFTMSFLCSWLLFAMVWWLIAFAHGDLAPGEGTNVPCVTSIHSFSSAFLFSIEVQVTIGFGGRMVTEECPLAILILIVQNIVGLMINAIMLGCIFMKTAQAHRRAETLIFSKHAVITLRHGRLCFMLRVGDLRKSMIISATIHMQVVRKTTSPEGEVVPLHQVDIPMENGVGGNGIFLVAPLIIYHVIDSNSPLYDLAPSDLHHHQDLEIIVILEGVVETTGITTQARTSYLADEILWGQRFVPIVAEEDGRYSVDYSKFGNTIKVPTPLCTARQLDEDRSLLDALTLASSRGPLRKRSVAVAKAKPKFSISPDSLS
Description: Using the same Kir6.2 channel-overexpressing cells as in Test Example 1, the amount of calcium that flows into cells from outside the cells by TP-014 treatment was measured by a calcium imaging method. The calcium imaging method is a method of measuring the amount of calcium based on the intensity of fluorescence of cultured nerve cells, which are treated in a culture solution containing a calcium fluorescent dye (Fura2, manufactured by Dojindo Laboratories) in a concentration of 4 μM. Imaging was carried out by an imaging apparatus (LAMBDA10-2, manufactured by SUTTER INSTRUMENT) in accordance with the manual attached to the apparatus.

APP23 mice = experiment: New object recognition test in Alzheimer's disease model mice; format: in vivo; conditions: APP23 mice 12 month-old, administered for two months
Description: The new object recognition test method is carried out as follows. Two identical shape building blocks are placed in a mouse cage and mice are allowed to play for 10 minutes (this is referred to as a training trial). One hour later, one of the building blocks was replaced with a different-shaped building block. Since normal mice show interest on a new object, they play a longer time with the different-shaped building block. The Alzheimer's disease (model) mice, since the mice fail to recognize the new object (building block), are seemed to have memory disturbance. Mice are allowed to freely play for further 5 minutes with two building blocks different in shape (this is referred to as retention trial). In the training trial and retention trial, the number of times a mouse is in contact with each of the two objects was counted. The ratio (%) of the number of contact times to the different-shaped building block to the total number of contact times in the retention trial was calculated and used as a discrimination index.

CaMKIV defective mice = experiment: Tail-suspension and forced swim methods in CaMKIV defective mice; format: in vivo
Description: as §1
CaMKIV induced by Kir6.1 channel was analyzed by using CaMKIV defective mice (n=5, per group*) in the same manner as in FIG. 12. Acceleration of depression-like symptom was observed also in the CaMKIV defective mice. […] TP-014 had no effect on CaMKIV depression-like symptom (increase of immobility time). […] CaMKIV defective mice were obtained from professor, Hiroyuki Sakagami, Kitasato University School of Medicine (Takao K et al., PLoS One 2010, 5, e9460).

O=C(N[C@@H](c1ccccc1)[C@H]1[C@H]2C[C@@H]3C[C@](Cl)(C2)C[C@@]1(OC(=O)C(F)(F)F)C3)C(F)(F)F [TP-014, (1S,2R,3S,5S,7S)-5-chloro-2-((R)-phenyl(2,2,2-trifluoroacetamido)methyl)adamantan-1-yl 2,2,2-trifluoroacetate]
depression-like symptom, immobility time in Kir6.1 defective mice (Kir6.1 defective mice): not effective
cognitive dysfunction of OBX mice [1]: significantly improved
calcium concentration increasing effect compared with memantine (Kir6.2 channel; TP-014 1-100 nM vs memantine 100 nM): larger calcium concentration increasing effect than memantine
amount of calcium within cells (Kir6.2 channel; TP-014 1-100 nM, 4 minutes after treatment, Kir6.2 channel-overexpressing cells): significantly increased
cognitive function, new object recognition test (discrimination index) (APP23 mice): effectively improved
depression-like symptom (increase of immobility time) in CaMKIV defective mice (CaMKIV defective mice): no effect
